According to patent publication US7572827B2, “Use of angelicin and of its structural analogues for the treatment of thalassemia” (Universita' Degli Studi Di Ferrara, priority 2002, dated 2009):

Columns and labels:
[1] = tested on: human cell line K562; test: Erythroid differentiation of K562 cells (benzidine-positive cells); assay type: cell-based; settings: for Erythroid differentiation (%) = percentage of K562 cells that react positively to benzidine: optimal concentration of each compound (cytosine arabinoside 1 μM, bergapten 200 μM, angelicin 400 μM), six experiments, control 3-4
Description: (§1) The biological activity of angelicin was evaluated by examining the capacity of that compound to modulate the expression of genes for gamma-globin in the human cell line K562, which is capable of differentiating in the erythroid manner by expressing genes for gamma-globin if subjected to treatment with modifiers of the biological response that are suitable for the purpose (3, 18, 19).
(§2) The level of differentiation was evaluated by analyzing the positive reaction of the cells to benzidine (3). The production of haemoglobin was evaluated by electrophoresis on cellulose acetate and by colouring the gel with a solution based on benzidine/H2O2 (3). The expression of the genes encoding for gamma-globin was evaluated by quantitative RT-PCR (reverse transcriptase PCR) (3).

[2] = tested on: gamma-globin mRNA in K562 cells; test: Gamma-globin mRNA accumulation in K562 cells by quantitative RT-PCR; assay type: cell-based, human; settings: K562 cells treated for 6 days, cytosine arabinoside 1 μM, bergapten 200 μM, angelicin 400 μM, control = 1
Description: as §1, §2

[3] = tested on: gamma-globin mRNA in human erythroid precursors; test: Gamma-globin mRNA accumulation in human erythroid precursors isolated from peripheral blood (Fibach two-stage culture), quantitative RT-PCR; assay type: cell-based; settings: for Gamma-globin mRNA, increase compared with untreated control erythroid precursors: human erythroid precursors, angelicin 500 μM, hydroxyurea 120 μM, control = 1, quantitative RT-PCR
Description: In order to check whether angelicin was also capable of stimulating the production of mRNA for gamma-globin in human erythroid precursors isolated from peripheral blood, the technique published by Fibach et al. (20, 21) was used. This technique provides for two stages: in the first stage, the cells isolated from peripheral blood of a subject who is healthy or suffering from a haemopoietic pathology, such as sickle cell anaemia or beta-thalassaemia, are sown in a culture medium to which 10% of conditioned medium derived from the vesicle carcinoma cell line 5637 has been added. The second stage consists in cultivating the isolated cells in a suitable culture medium, supplemented by the erythropoietin hormone, 30% bovine foetal serum, 2-mercaptoethanol, albumin, glutamine and desamethasone in order to permit the proliferation and maturing of stem cells of the erythroid type. In this stage the cells can be treated with potential HbF inducers.

[4] = tested on: human cell line K562; test: Haemoglobin production in K562 cells (cellulose acetate electrophoresis, benzidine/H2O2 staining); assay type: cell-based; settings: 400 μM angelicin for 6 days
Description: as §2

In the case of `Nc1ccn([C@@H]2O[C@H](CO)[C@@H](O)[C@@H]2O)c(=O)n1` [cytosine arabinoside, reference compound], the “Erythroid differentiation (%) = percentage of K562 cells that react positively to benzidine” value [1] was 75-80% and the “Gamma-globin mRNA, increase compared with untreated control K562 cells” value [2] was 3.24.
For `COc1c2ccoc2cc2oc(=O)ccc12` [bergapten, 5-methoxypsoralen], the “Erythroid differentiation (%) = percentage of K562 cells that react positively to benzidine” value [1] was 50-60% and the “Gamma-globin mRNA, increase compared with untreated control K562 cells” value [2] was 3.48.
For `O=c1ccc2ccc3occc3c2o1` [angelicin], the “Erythroid differentiation (%) = percentage of K562 cells that react positively to benzidine” value [1] was 55-60%, the “percentage of K562 cells that react positively to benzidine” value ([1]; angelicin 400 μM, 6 days, control K562 cells 3-4%) was 55-60% and the “Gamma-globin mRNA, increase compared with untreated control K562 cells” value [2] was 44.94. The “increase in the production of mRNA for gamma-globin compared with the same untreated cells” value ([3]; human erythroid precursors from peripheral blood treated with angelicin) was 20.53 times, the “Gamma-globin mRNA, increase compared with untreated control erythroid precursors” value [3] was 20.53 and the chief haemoglobin produced [4] was “Hb Portland (alpha2gamma2)”.
With `NC(=O)NO` [hydroxyurea, reference compound] the “Gamma-globin mRNA, increase compared with untreated control erythroid precursors” value [3] was 6.96.
